# Experimental data taken from article PMC11847541, “Liver fatty acid binding protein FABP1 transfers substrates to cytochrome P450 4A11 for catalysis” (The Journal of Biological Chemistry, 2025).
# Where two headings read alike, the source gives them in different places.
# Columns and labels:
# P450 4A11 [1] = target: T1, P450 4A11 (Homo sapiens, UniProt Q02928); assay: Equilibrium binding titrations of P450 4A11 with lipids (heme Soret spectral shift); conditions: for P450 heme Soret spectral shift induced: P450 4A11
# T1 sequence (Q02928 5-519): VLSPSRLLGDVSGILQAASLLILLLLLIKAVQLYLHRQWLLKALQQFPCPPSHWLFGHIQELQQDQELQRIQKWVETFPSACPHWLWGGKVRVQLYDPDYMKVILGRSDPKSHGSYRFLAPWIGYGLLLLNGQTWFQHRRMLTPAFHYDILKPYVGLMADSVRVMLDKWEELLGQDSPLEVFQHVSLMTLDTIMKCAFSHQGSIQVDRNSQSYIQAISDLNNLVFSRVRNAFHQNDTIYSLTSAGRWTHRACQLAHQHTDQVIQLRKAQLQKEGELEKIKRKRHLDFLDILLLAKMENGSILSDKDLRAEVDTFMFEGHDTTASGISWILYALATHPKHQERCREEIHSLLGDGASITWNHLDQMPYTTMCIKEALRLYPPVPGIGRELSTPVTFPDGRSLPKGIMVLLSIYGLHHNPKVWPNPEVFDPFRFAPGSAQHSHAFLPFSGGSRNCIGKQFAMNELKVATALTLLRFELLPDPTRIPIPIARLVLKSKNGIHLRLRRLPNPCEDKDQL
# Description: Affinity of palmitate and 16-OH palmitate for P450 4A11 (1 μM) was assessed by monitoring the blue shift (from ∼420 nm to ∼390 nm) of the P450 heme Soret band as a substrate binds and displaces the sixth axial heme ligand (H2O) to yield pentacoordinated heme (“type I” shift) ([26]).
# P450 4A11 (1 μM) was titrated with (A) palmitate and (B) 16-OH palmitate in a 1.0 cm pathlength cell. Difference plots were calculated from absorbance maxima (∼390 nm) and minima (∼420 nm), and the data were fit to a hyperbolic equation. The insets in each panel are the difference spectra between a cuvette that received the lipid substrate and a cuvette that received solvent alone. Each data point corresponds to one independent replicate.
# Equilibrium binding titrations with P450 4A11 (1 μM) were performed in buffer (100 mM potassium phosphate [pH 7.4]) as described previously ([44], [56]). Briefly, a baseline was first acquired on an OLIS-Cary 14 spectrophotometer set to scan from 350 to 500 nm in 1 cm glass cuvettes. […] The cuvettes were mixed with a plumper after additions, and spectra were recorded. The spectra were exported into Microsoft Excel software, and the absorbance values at 418 nm were subtracted from those at 390 nm and the values were plotted as a function of lipid concentration.
# Titration of P450 4A11 with DAUDA. The P450 concentration was 1 µM and the DAUDA concentration was varied using a geometric series from 1 nM to 10 µM. […] The increase in absorbance in the UV region is due to the strong chromophore in the DAUDA dansyl moiety (Fig. S8).
# P450 4A11 [2] = target: T1, P450 4A11; assay type: biochemical; design: made in house; host or cells: E. coli
# Description: To differentiate between the two possible roles of FABP1 in P450 catalysis (competitive binder versus direct transfer, Fig. 2), two catalytic experiments testing palmitate oxidation were designed: one in which the FABP1 concentration was varied with a fixed concentration of palmitate (Fig. 12A) and another performed vice versa (Fig. 12B).
# Dashed lines are the predicted kinetic data from the free ligand model (blue) and the direct transfer model (red) using the experimentally determined rate constants (Table 1, Fig. 2). A reaction performed without the addition of FABP1 (open circles) was also fit to a modeled curve (black dashed line), which utilizes only the rate constants determined for P450 4A11. Error bars reflect standard deviation of two replicate values, that is, range (if not visible, the deviation is too small to be represented). FABP1, fatty acid binding protein.
# Potassium phosphate buffer (100 mM, pH 7.4), DTT (1 mM, added as described earlier ([44], [56])), and [1-^14C]-palmitate (5 μM, 20 mCi/mmol [added from a 1 mM stock in C2H5OH]) were added, and the mixture was split between vials. Just prior to the reaction preincubation, FABP1 (0–5 μM) was added (diluted so the same volume of FABP1 stock solutions were added to each sample). The mixtures were preincubated (5 min, 37 °C), and P450 4A11 activity was initiated with an NADPH-regenerating system ([78]), the addition of which brought reactions to their final volume (0.5 ml). Reactions (5 min) were quenched via the addition of CH2Cl2 (5 ml), were mixed with a vortex device, and were placed on ice. After the completion of the time course, the samples were centrifuged (1000g, 5 min, 23 °C) to separate layers, the organic layer (4 ml) was transferred to fresh vials, and the solvent was removed under a stream of N2. […] The column eluate was mixed (1:2, v/v) with FlowLogic U scintillation cocktail (LabLogic), and radioactivity (^14C) was detected using a β-RAM Model 5 radioflow detector (IN/US; LabLogic). Product was quantitated on the basis of its ^14C peak area relative to the summed radioactivity of the substrate and product.
# To determine the reaction rate versus palmitate concentration, a similar reconstitution premixture was prepared with the modification that FABP1 (5 μM) was used instead of palmitate, and the concentrations of P450 4A11 and NADPH–P450 reductase were increased to 0.3 μM and 0.6 μM, respectively. […] The residue was dissolved in 50 μl C2H5OH, transferred to autosampler vials, and analyzed on LC–MS as described earlier (see “Quantitation of ligand-bound FABP1”) but set to operate in the negative-ion mode with the gradient mobile phase modified to (all % v/v: 0 min, 65% B; 0.5 min, 65% B; 5 min, 100% B; 7.5 min, 100% B; 7.6 min, 65% B; 9 min, 65% B). […]
molecule,measurement,setting,value
"O=C(O)CCCCCCCCCCCCCCCO [16-OH Palmitate (C16), 16-hydroxypalmitate]",P450 heme Soret spectral shift induced,P450 4A11 [1],reverse type I shift
same,Kd,"P450 4A11 [1]; read-out: Kd for P450 4A11, P450 4A11 1 μM, 100 mM potassium phosphate pH 7.4",270 ± 40 nM
"CCCCCCCCCCCCCCCC(=O)O [Palmitate (C16), palmitate]",maximal observed rate of reaction,P450 4A11 [2]; - cytochrome b5,12 ± 1 min⁻¹
same,kcat estimate,"P450 4A11 [2]; - cytochrome b5, P450 4A11 0.05 µM",0.483 ± 0.05 s⁻¹
same,maximum measurable rate of reaction (k2),"P450 4A11 [2]; palmitate oxidation, without cytochrome b5, did not saturate",0.2 s⁻¹
same,Kd,P450 4A11 [1],5200 ± 1600 nM
same,P450 heme Soret spectral shift induced,P450 4A11 [1]; listed as Palmitate,classical type I spectral shift
same,P450 heme Soret spectral shift induced,P450 4A11 [1]; listed as palmitate,type I
FABP1: delipidated recombinant liver fatty acid binding protein with C-terminal hexahistidine tag,reduction of enzyme activity,P450 4A11 [2],≤ 50%
